Values of other authors in patent US20120289568A1, “COMBINATIONS OF OXYBUTYNIN AND SALIVARY STIMULANTS FOR THE TREATMENT OF OVERACTIVE BLADDER” (THERAVIDA, INC., priority 2011, published 2012).

Conditions: 5 mg of pilocarpine

CC[C@@H]1C(=O)OC[C@@H]1Cc1cncn1C [pilocarpine]
time of maximum saliva output after administration: about 30 minutes
